According to BindingDB's records for doi:10.1021/jm990229t (Ariad Pharmaceuticals, 1999):

Experiments:
[1] = target: T1, Tyrosine-protein kinase ZAP-70 (Homo sapiens, UniProt P43403); assay: Competitive Binding Assay; conditions: pH 7.4; 22 °C
T1 sequence (P43403 whole entry): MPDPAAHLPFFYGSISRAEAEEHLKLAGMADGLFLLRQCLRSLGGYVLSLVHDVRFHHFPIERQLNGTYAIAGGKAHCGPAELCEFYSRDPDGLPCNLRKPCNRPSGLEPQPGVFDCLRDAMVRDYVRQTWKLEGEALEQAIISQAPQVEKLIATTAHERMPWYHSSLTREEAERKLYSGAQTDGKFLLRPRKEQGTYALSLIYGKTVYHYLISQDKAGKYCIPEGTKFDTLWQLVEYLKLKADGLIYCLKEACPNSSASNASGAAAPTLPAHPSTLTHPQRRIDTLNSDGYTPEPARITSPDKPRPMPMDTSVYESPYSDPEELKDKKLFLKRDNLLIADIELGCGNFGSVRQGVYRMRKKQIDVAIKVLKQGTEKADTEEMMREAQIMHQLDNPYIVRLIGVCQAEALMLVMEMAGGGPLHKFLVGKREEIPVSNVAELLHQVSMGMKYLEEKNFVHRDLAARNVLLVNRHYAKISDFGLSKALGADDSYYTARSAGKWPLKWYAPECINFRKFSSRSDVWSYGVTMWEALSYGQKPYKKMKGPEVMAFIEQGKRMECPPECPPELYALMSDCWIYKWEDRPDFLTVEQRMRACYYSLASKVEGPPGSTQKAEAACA
Description: (§1) Fluorescence polarization competitive binding assays were used to measure the IC50s of compounds binding to the different SH2 domains. The difference in polarization values of fluorescein-conjugated peptide reflects the bound and unbound state of the probe. IC50s were calculated based on the binding of the fluorescein-conjugated peptide to the protein with compound addition relative to vehicle-alone control samples.

[2] = target: Proto-oncogene tyrosine-protein kinase Src (Homo sapiens, UniProt P12931); assay: Competitive Binding Assay; conditions: pH 7.4; 22 °C
Proto-oncogene tyrosine-protein kinase Src, sequence (P12931 2-536 limits assumed): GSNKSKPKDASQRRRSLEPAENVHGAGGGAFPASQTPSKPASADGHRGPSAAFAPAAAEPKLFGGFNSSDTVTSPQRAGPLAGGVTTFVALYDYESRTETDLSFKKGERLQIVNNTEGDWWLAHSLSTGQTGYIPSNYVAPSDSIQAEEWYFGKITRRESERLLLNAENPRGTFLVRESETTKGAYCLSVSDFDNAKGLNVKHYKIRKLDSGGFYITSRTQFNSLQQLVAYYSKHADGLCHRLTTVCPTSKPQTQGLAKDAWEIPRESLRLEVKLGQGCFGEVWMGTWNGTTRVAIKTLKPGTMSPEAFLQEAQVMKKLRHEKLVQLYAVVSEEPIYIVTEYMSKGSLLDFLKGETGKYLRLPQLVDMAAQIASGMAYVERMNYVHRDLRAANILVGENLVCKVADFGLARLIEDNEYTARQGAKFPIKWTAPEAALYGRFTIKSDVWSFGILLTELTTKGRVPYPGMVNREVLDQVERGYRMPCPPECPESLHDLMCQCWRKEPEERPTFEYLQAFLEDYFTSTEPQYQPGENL
Description: as §1

`CC(=O)N[C@@H](Cc1ccc(OP(=O)(O)O)cc1)C(=O)N[C@@H](CCC(N)=O)c1nc(Cc2c(C)cc(C)cc2C)no1` [4-[(2S)-2-{[(1S)-3-carbamoyl-1-{3-[(2,4,6-trimethylphenyl)methyl]-1,2,4-oxadiazol-5-yl}propyl]carbamoyl}-2-acetamidoethyl]phenoxyphosphonic acid] was tested, and the IC50 [1] was > 500 µM and the IC50 [2] was 312 µM.
